In patent US20250241863A1, “COMPOSITIONS AND METHODS FOR TARGETED DELIVERY OF THERAPEUTIC AND/OR DIAGNOSTIC SPECIES” (THE PENN STATE RESEARCH FOUNDATION, priority 2017, published 2025):
One block for each compound: values may come before it. {FAM} = fluorescein (FAM) label; {NH2} = amine modification

Assays:
[1] = activation temperature of the retro Diels-Alder reaction of the linker groups (FIG. 7); type: physicochemical; settings: linker group in FIG. 7
Text: (§1) For different Diels-Alder cyclo-addition products, the retro (or reverse) Diels-Alder reaction will occur or be initiated at different temperatures (i.e., different activation temperatures). Thus, by varying the Diels-Alder cyclo-addition product in the linker group, breaking up or cleaving of the Diels-Alder cyclo-addition product (and concomitant decoupling of the therapeutic species and the nanoparticle) can be “tuned” to occur at different temperatures.

[2] = temperature dependency of retro Diels-Alder reaction (release of fluorescent si-RNA) for linker connected to a nanoparticle (FIGS. 10, 11); type: physicochemical; settings: for cleavage of the linker: linker connected to a nanoparticle
Text: as §1
Specifically, to conjugate a FAM-tagged RFP antisense siRNA mimic, an EDC coupling protocol was used with […] of an aqueous EDC/NHS (100 mM) stock solution added to each of the three resuspended nanoparticle aliquots prepared in Example 3, followed by […] of the amine-terminated siRNA (4 mM), After 24 h, the particles were again centrifuged, washed, and resuspended in DI water. A control sample in which cysteamine modified SNPs were linked to the 6-maleimidohexanoic acid via EDC coupling was also prepared, similarly to the pyrrole-based reaction described above, but without addition of the diene, to test the stability of both the amide and thiol linkages. Conjugation of the linkers and siRNA was tested by chemically reducing the Ag-linker bond using TCEP reagent (tris(2-carboxyethyl)phosphine hydrochloride) and measuring FAM intensity of the supernatant.
The products of these reactions (pyrrole, furan, and thiophene-based) were analyzed. For example, the temperature dependency of the retro Diels Alder reaction (and release of the fluorescent si-RNA) was evaluated. […] The fluorescence intensity of the treated sample is assumed to indicate maximum release (due to cleavage/retro (or reverse) Diels Alder reaction).

PAM2 skin cancer cells = assay: anti-cancer effects of released miRN-148b in PAM2 cells (FIG. 23); type: cell-based; settings: PAM2 cells transfected, 7 days after transfection (positive control)
Protocol: (§2) The anti-cancer effects towards PAM2 skin cancer cells of miRN-148b released from compositions described herein were explored using a furan-based linker conjugated with a FAM-tagged miRN-148b and an SNP. The furan-based linker composition was prepared according to Examples 1-5. SNPs surface-modified with miRNA mimics via Diels-Alder linkage, were sterilized in 70/30% ethanol and water solution prior to washing and resuspension in RNAse-free water. Subsequently, appropriate nanoparticle solution volumes were added, based on required dosages, to the adherent monolayer PAM2 cells at optimal seeding densities, immersed in appropriate cell culture media. Transfection was allowed to occur at 37° C. for 24 h.
FIG. 23A is a negative control showing fluorescence of the PAM2 cells in the presence of silver nanoparticles prepared in accordance with Example 1 after 7 days. FIG. 23B is a positive control showing PAM2 cells transfected with FAM-tagged miRN-148b 7 days after transfection.

[3] = system: Ras-induced keratinocyte lung cancer cells; assay: anti-cancer effects of released miRN-148b in Ras-induced keratinocyte cells (FIG. 24); type: cell-based; settings: keratinocyte cells transfected with 100 nM, after 7 days
Protocol: as §2, with “Ras-induced keratinocyte lung” for “PAM2 skin”
FIG. 24A is a negative control of keratinocyte cells in the absence of the composition and FAM-tagged miRN-148b after 7 days. FIG. 24B is a positive control of keratinocyte cells after 7 days, which have been transfected with FAM-tagged miRN-148b (100 nM).

activation temperature of the retro Diels-Alder reaction [1]: 60 °C
speed of cleavage of the linker compared with the thiophene-based linker ([2]; FIGS. 10 and 11): faster at lower temperatures
cleavage of the linker ([2]; after 1 hour of heating, at 60° C.): 25%
Compound: O=C(O)CCCCCN1C(=O)C2C3C=CC(CS)(O3)C2C1=O (centres unmarked) [furan-based linker group]

Compound: O=C(O)CCCCCN1C(=O)C2C3C=CC(C(=O)O)(N3)C2C1=O (centres unmarked) [pyrrole-based linker group]
activation temperature of the retro Diels-Alder reaction [1]: 40 °C

activation temperature of the retro Diels-Alder reaction [1]: around 80 °C
cleavage of the linker ([2]; after 2 hours of heating at 37° C., 60° C., and 80° C.): not observed until 80 °C
Compound: O=C(O)CCCCCN1C(=O)C2C3C=CC(CS)(S3)C2C1=O (centres unmarked) [thiophene-based linker group]

Compound: FAM-tagged miRN-148b: 3′amine/5′-FAM modified single stranded siRNA, sequence UUGGAGCCGUACUGGAACUUG (5' {FAM}, 3' {NH2}, sugars by position and backbone not given here)
cell proliferation and growth (PAM2 skin cancer cells): reduced cell proliferation and growth
cell growth [3]: normal cell behavior
